In ChEMBL document CHEMBL4422692, “Plant-Based Modulators of Endocannabinoid Signaling” (J Nat Prod, 2019):

Key:
Cannabinoid receptor 1 = Cannabinoid receptor 1 (Homo sapiens, UniProt P21554); experiment: Displacement of [3H]-CP55940 from recombinant human CB1 receptor expressed in Sf9 cell membranes co-expressing Galphai3beta1gamma2 measured after 90 mins by scintillation counting method
Cannabinoid receptor 2 = Cannabinoid receptor 2 (Homo sapiens, UniProt P34972); experiment: Displacement of [3H]-CP55940 from recombinant human CB2 receptor expressed in Sf9 cell membranes co-expressing Galphai3beta1gamma2 measured after 90 mins by scintillation counting method
Chain of Cannabinoid receptor 2 (P34972 whole entry): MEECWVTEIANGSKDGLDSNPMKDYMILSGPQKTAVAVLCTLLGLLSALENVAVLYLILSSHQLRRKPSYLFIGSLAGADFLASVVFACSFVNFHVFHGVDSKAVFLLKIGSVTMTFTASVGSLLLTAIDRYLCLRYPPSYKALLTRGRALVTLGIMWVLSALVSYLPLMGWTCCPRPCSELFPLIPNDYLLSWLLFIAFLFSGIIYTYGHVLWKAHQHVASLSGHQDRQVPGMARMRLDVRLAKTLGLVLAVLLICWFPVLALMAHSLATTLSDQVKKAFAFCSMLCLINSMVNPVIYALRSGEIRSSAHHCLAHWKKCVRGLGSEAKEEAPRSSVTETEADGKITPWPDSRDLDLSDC

[1] = target: T1, Diacylglycerol lipase-alpha (Homo sapiens, UniProt Q9Y4D2); experiment: Inhibition of recombinant human DAGLalpha expressed in COS7 cells using [14C]-oleoyl-2-arachidonoyl-glycerol as substrate measured after 20 mins by beta-counting method; type: cell-based
T1 sequence (Q9Y4D2 whole entry): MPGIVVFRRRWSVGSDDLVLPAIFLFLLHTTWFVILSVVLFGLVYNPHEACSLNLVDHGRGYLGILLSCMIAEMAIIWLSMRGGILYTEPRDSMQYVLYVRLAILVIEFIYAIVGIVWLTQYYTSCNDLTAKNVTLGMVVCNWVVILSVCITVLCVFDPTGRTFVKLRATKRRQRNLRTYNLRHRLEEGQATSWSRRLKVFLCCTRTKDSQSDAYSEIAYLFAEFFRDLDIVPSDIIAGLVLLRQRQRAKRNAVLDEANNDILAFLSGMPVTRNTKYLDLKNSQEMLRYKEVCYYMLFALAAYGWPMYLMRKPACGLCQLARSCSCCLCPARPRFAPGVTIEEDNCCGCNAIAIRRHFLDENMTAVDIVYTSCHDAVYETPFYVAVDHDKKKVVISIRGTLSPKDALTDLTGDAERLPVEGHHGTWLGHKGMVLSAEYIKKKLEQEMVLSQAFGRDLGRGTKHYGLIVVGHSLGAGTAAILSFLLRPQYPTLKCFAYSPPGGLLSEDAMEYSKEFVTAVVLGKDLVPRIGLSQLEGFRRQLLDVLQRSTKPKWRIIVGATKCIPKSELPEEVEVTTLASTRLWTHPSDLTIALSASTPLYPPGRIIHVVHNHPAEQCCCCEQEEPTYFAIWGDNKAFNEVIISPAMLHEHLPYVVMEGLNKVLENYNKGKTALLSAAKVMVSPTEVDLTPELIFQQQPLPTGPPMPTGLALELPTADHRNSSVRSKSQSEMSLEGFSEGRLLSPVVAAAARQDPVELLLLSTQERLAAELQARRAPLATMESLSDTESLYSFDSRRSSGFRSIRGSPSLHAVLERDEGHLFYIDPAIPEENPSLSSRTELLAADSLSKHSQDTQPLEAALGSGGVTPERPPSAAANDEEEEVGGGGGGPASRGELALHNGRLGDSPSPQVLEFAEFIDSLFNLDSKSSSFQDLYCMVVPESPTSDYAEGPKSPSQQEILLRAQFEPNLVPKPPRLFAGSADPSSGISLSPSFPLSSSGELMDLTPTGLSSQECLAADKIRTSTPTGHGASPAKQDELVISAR

[2] = target: T2, Diacylglycerol lipase-alpha (Homo sapiens) (UniProt Q9Y4D2); experiment: Inhibition of recombinant human DAGLalpha expressed in COS7 cells at 50 uM using [14C]-oleoyl-2-arachidonoyl-glycerol as substrate measured after 20 mins by beta-counting method relative to control; type: cell-based
T2 sequence (whole entry): T1 sequence (Q9Y4D2 whole entry)

[3] = Inhibition of MAGL in African green monkey COS cell homogenates using [3H]-arachidonoylglycerol as substrate measured after 20 mins by scintillation counting method; type: tissue-based, Chlorocebus aethiops
Chlorocebus aethiops [4] = species on record: Chlorocebus aethiops; experiment: Inhibition of MAGL in African green monkey COS cell homogenates at 100 uM using [3H]-arachidonoylglycerol as substrate measured after 20 mins by scintillation counting method relative to control; type: tissue-based
[5] = target: T3, Fatty-acid amide hydrolase 1 (Rattus norvegicus, UniProt P97612); experiment: Inhibition of FAAH in rat brain membranes using [14C]-AEA as substrate measured after 30 mins by scintillation counting method; type: cell membranes
T3 sequence (P97612 whole entry): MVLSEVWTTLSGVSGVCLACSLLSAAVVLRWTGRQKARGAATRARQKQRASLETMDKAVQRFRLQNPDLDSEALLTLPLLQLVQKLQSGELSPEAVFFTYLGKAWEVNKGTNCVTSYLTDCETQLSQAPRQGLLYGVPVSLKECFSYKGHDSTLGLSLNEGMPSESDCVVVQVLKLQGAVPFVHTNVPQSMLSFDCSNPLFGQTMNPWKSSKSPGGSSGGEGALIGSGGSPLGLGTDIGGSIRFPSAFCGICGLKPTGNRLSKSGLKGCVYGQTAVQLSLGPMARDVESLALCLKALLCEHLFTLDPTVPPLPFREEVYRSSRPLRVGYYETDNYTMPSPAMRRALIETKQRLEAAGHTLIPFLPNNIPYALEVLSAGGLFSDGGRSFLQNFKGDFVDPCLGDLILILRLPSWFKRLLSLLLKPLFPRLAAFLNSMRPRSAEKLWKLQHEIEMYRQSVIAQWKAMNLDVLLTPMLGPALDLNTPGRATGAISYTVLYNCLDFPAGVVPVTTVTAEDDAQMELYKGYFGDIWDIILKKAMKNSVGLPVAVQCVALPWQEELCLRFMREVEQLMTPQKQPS

[6] = target: T4, Fatty-acid amide hydrolase 1 (Rattus norvegicus) (UniProt P97612); experiment: Inhibition of FAAH in rat brain membranes at 50 uM using [14C]-AEA as substrate measured after 30 mins by scintillation counting method relative to control; type: cell membranes
T4 sequence (whole entry): T3 sequence (P97612 whole entry)

[7] = target: T5, N-acylethanolamine-hydrolyzing acid amidase (Homo sapiens, UniProt Q02083); experiment: Inhibition of recombinant human NAAA expressed in HEK293 cells using [14C]-N-palmitoylethanolamine as substrate measured after 30 mins by beta-counting method; type: cell-based
T5 sequence (Q02083 whole entry): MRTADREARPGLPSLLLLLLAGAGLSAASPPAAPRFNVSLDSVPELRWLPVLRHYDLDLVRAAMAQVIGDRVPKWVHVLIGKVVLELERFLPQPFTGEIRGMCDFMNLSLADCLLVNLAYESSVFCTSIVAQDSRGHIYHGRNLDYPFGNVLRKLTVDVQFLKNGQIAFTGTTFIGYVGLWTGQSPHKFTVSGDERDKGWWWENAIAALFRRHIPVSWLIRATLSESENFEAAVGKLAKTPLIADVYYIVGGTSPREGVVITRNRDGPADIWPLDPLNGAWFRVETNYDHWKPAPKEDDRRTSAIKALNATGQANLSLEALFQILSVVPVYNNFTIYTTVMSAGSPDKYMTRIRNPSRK

[8] = target: T6, N-acylethanolamine-hydrolyzing acid amidase (Homo sapiens) (UniProt Q02083); experiment: Inhibition of recombinant human NAAA expressed in HEK293 cells at 100 uM using [14C]-N-palmitoylethanolamine as substrate measured after 30 mins by beta-counting method relative to control; type: cell-based
T6 sequence (whole entry): T5 sequence (Q02083 whole entry)

RBL-2H3 [9] = experiment: Inhibition of [14C]-AEA uptake in rat RBL2H3 cells by scintillation counting method; type: functional, cell-based
RBL-2H3 [10] = experiment: Inhibition of [14C]-AEA uptake in rat RBL2H3 cells at 25 uM by scintillation counting method relative to control; type: functional
Chlorocebus aethiops [11] = species on record: Chlorocebus aethiops; experiment: Inhibition of MAGL in African green monkey COS cell homogenates at 50 uM using [3H]-arachidonoylglycerol as substrate measured after 20 mins by scintillation counting method relative to control; type: tissue-based
[12] = target: T2, Diacylglycerol lipase-alpha (Homo sapiens); experiment: Inhibition of recombinant human DAGLalpha expressed in COS7 cells at 100 uM using [14C]-oleoyl-2-arachidonoyl-glycerol as substrate measured after 20 mins by beta-counting method relative to control; type: cell-based
[13] = target: T7, Fatty-acid amide hydrolase 1 (Homo sapiens) (UniProt O00519); experiment: Inhibition of recombinant human FAAH using N-arachidonyl-7-amino-4-methylcoumarin as substrate preincubated for 20 mins followed by substrate addition and measured after 30 mins by fluorescence assay
T7 sequence (whole entry): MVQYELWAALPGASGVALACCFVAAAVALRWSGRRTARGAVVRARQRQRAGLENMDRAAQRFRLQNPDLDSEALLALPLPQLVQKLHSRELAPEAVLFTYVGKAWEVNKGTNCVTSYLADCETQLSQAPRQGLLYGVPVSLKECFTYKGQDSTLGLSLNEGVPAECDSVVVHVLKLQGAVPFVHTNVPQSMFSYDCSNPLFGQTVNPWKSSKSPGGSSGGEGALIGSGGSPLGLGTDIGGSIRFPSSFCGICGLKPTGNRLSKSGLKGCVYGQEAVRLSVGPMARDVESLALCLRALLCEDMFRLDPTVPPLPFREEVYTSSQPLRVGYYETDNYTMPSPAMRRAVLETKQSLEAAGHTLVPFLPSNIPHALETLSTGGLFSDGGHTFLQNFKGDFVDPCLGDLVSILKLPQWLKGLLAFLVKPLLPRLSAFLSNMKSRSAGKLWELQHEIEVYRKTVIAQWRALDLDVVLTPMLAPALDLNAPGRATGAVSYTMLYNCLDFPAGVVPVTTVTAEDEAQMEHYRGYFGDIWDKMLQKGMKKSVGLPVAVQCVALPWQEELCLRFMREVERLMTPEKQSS

[14] = target: T4, Fatty-acid amide hydrolase 1 (Rattus norvegicus); experiment: Inhibition of FAAH in rat brain membranes at 100 uM using [14C]-AEA as substrate measured after 30 mins by scintillation counting method relative to control; type: cell membranes
[15] = target: T6, N-acylethanolamine-hydrolyzing acid amidase (Homo sapiens); experiment: Inhibition of recombinant human NAAA expressed in HEK293 cells at 50 uM using [14C]-N-palmitoylethanolamine as substrate measured after 30 mins by beta-counting method relative to control; type: cell-based

Chain of Cannabinoid receptor 1 (P21554 whole entry): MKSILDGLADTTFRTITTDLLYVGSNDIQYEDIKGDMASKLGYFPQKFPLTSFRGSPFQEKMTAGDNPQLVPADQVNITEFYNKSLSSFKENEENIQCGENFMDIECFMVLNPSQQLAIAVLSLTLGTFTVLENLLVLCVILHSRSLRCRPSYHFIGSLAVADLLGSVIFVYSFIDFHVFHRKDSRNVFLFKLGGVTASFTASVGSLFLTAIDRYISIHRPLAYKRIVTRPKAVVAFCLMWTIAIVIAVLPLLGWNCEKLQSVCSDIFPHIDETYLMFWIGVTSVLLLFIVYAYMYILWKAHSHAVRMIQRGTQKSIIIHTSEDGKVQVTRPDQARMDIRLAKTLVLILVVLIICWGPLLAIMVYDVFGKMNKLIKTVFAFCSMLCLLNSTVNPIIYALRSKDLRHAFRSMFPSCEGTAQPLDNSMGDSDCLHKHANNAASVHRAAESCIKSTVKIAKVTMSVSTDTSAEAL

| SMILES | Ki (Cannabinoid receptor 1) [nM] | Ki (Cannabinoid receptor 2) [nM] | IC50 [1] [µM] | Emax [2] [%] | IC50 [3] [µM] | Emax (Chlorocebus aethiops [4]) [%] | IC50 [5] [µM] | Emax [6] [%] | IC50 [7] [µM] | Emax [8] [%] | IC50 (RBL-2H3 [9]) [µM] | Emax at 25 µM (RBL-2H3 [10]) [%] | Emax (Chlorocebus aethiops [11]) [%] | Emax [12] [%] | Efficacy [13] [%] | Emax [14] [%] | Emax [15] [%] |
| --- | --- | --- | --- | --- | --- | --- | --- | --- | --- | --- | --- | --- | --- | --- | --- | --- | --- |
| CCCCCc1cc2c(c(O)c1C(=O)O)[C@@H]1C=C(C)CC[C@H]1C(C)(C)O2 [DELTA9-TETRAHYDROCANNABINOLIC ACID A] | 24 | 56 | 27.3 | 86.2 | 46 | 86 | > 50 | 38.8 | > 50 | 21.1 | > 25 | 34.4 |  |  |  |  |  |
| CCCCCc1cc(O)c2c(c1)OC(C)(C)c1ccc(C)cc1-2 [CANNABINOL] | 13 | 16 | > 50 | 26.9 | > 50 |  | > 50 | 29.1 | > 50 | 31.4 | 25 | 50 | 31.5 |  |  |  |  |
| CCCCCc1cc(O)c(C/C=C(\C)CCC=C(C)C)c(O)c1C(=O)O [CANNABIGEROLIC ACID] |  |  | 30.5 |  | > 50 | 17.2 | > 50 | 46.2 | > 50 | 33.2 | > 25 | 43.6 |  | 67.6 |  |  |  |
| C=C(C)[C@@H]1CCC(C)=C[C@H]1c1c(O)cc(CCC)c(C(=O)O)c1O |  |  | 35 | 61 |  |  |  |  |  |  |  |  |  |  |  |  |  |
| CCCCCCCC/C=C\CCCCCCCC(=O)NCc1ccccc1 |  |  |  |  |  |  |  |  |  |  |  |  |  |  | 76.1 |  |  |
| CCCc1cc(O)c2c(c1)OC(C)(C)[C@@H]1CCC(C)=C[C@@H]21 [TETRAHYDROCANNABIVARIN] |  |  | > 50 | 8.8 | > 50 |  | > 50 |  | > 100 |  | > 25 | 46.9 | 18.2 |  |  | 26.8 | 18.2 |
| CCCCC/C=C\C/C=C\CCCCCCCC(=O)NCc1cccc(OC)c1 |  |  |  |  |  |  |  |  |  |  |  |  |  |  | 87.5 |  |  |
